Reference: patent US20070293486A1, “Alpha-Keto Carbonyl Calpain Inhibitors” (SANTHERA PHARMACEUTICALS (SCHWEIZ) AG, priority 2004, published 2007)

Legend:
[1] = test system: cellular calpains in C2C12 myoblasts; assay: Calpain Inhibition Assay in C2C12 Myoblasts; format: cell-based; conditions: read-out: Calp I IC50 Myoblast
Experimental: This assay is aimed at monitoring the ability of the substance to inhibit cellular calpains. C2C12 myoblasts are grown in 96-well plates in growth medium (DMEM, 20% foetal calf serum) until they reach confluency. The growth medium is then replaced by fusion medium (DMEM, 5% horse serum). 24 hours later the fusion medium is replaced by fusion medium containing the test substances dissolved in 1 μl DMSO. After 2 hours of incubation at 37° C. the cells are loaded with the calpain fluorogenic substrate Suc-Leu-Tyr-AMC at 400 μM in 50 μl of a reaction buffer containing 135 mM NaCl; 5 mM KCl; 4 mM CaCl2; 1 mM MgCl2; 10 mM Glucose; 10 mM HEPES pH 7.25 for 20 min at room temperature. The calcium influx, necessary to activate the cellular calpains, is evoked by the addition of 50 μl reaction buffer containing 20 μM of the calcium ionophore Br-A-23187 (Molecular Probes). The fluorescence of the cleavage product AMC is measured as described above during 60 min at 37° C. at intervals of 1 min. The IC50 values are determined as described above. Comparison of the IC50 determined in the enzymatic calpain inhibition assay to the IC50 determined in the C2C12 myoblasts calpain inhibition assay, allows to evaluate the cellular uptake or the membrane permeability of the substance.

[2] = biological target: T1, 20S Proteasome (Oryctolagus cuniculus, UniProt G1T4Q9); assay: 20S Proteasome Assay; format: biochemical; conditions: Rabbit, read-out: 20S Prot IC50
T1 sequence (G1T4Q9 1-263): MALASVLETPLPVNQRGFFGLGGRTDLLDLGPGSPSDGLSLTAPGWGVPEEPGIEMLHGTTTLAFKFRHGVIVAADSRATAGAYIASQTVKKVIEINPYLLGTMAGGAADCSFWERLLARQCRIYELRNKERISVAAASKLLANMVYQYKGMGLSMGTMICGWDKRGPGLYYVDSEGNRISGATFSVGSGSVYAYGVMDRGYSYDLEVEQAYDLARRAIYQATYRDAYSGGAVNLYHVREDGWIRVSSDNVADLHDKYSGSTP
Experimental: 25 μl of a reaction buffer containing 400 μM of the fluorogenic substrate Suc-Leu-Leu-Val-Tyr-AMC (Bachem) are dispensed per well of a white microtiter plate. Test compounds dissolved in 0.5 μl DMSO are added. To start the reaction; 25 μl of reaction buffer containing 35 ng of enzyme (20S Proteasome, Rabbit, Calbiochem) are added. The increase in fluorescence (excitation at 360 nm; emission at 440 nm) is measured over 30 min at 30° C. at 30″. The IC50's are then determined from the slopes.

[3] = test system: mdx mouse; assay: Longterm treatment of mdx mice (muscle histology); format: in vivo; conditions: for adverse effects upon longterm treatment: longterm treatment every 2nd day i.p.
Experimental: The mdx mouse is a well established animal model for Duchenne Muscular Dystrophy (Bulfield G., Siller W. G., Wight P. A., Moore K. J., X chromosome-linked muscular dystrophy (mdx) in the mouse, Proc. Natl. Acad. Sci. USA., 1984, 81(4), 1189-1192). Selected compounds were tested in longterm treatments of mdx mice, according to the procedures described below.
Mouse strains: C57BL/10scsn and C57BL/10scsn mdx mouse strains were purchased at The Jackson Laboratory (ME, USA) and bred inhouse. Mouse males were sacrificed at the age of 3 or 7 weeks by CO2 asphyxiation.
Treatment: Compounds were dissolved in 50% PEG, 50% saline solution and applied by i.p. injection.
Histology: Tibialis anterior (TA), quadriceps (Quad), and diaphragm (Dia) muscles were collected and mounted on cork supports using gum tragacanth (Sigma-Aldrich, Germany). The samples were snap-frozen in melting isopentane and stored at −80° C. 12 μm thick cryosections of the mid-belly region of muscles were prepared. For staining, sections were air dried and fixed with 4% PFA in PBS for 5 minutes, washed 3 times with PBS and incubated over night at 4° C. in PBS containing 2 μg/ml Alexa Fluor ™ 488 conjugated wheat-germ agglutinin (WGA-Alexa, Molecular Probes, Eugene, Oreg., USA) to stain membrane-bound and extracellular epitopes and 1 μg/ml 4′,6-diamidino-2-phenylindole (DAPI; Molecular Probes) to stain nuclei.
Image acquisition and analysis: Fluorescence microscopy images of both labels were acquired using a digital camera (ColorView II, Soft Imaging System, Münster, Germany) coupled to a fluorescence microscope (Vanox S, Olympus, Tokyo, Japan). Combination of these two stainings to a composite image, assembling of several images to a complete image of the entire muscle cross-section and further semi-automated analysis was performed using the image analysis program AnalySIS (Soft Imaging System). Image analysis of 1200-2900 muscle fibers in each section was performed in three steps: 1) determination of the muscle fiber boundaries, 2) determination of the muscle fiber size, and 3) determination of the percentage of muscle fibers containing centralized nuclei. Six different geometrical parameters were tested for the determination of the muscle fiber size: (a) the “minimal feret” (the minimum distance of parallel tangents at opposing borders of the muscle fiber), (b) the “area”, (c) the “minimal inner diameter” (the minimum diameter through the center of the muscle fiber), (d) the “minimal diameter” (the minimum diameter of a muscle fiber for angles in the range 0° through 179° with step width 1°, (e) the “minimal outer diameter” (the minimum diameter through the muscle fiber from outer border to outer border), and (f) the “perimeter”. The variance coefficient of the muscle fiber size is defined as follows: variance coefficient=(standard deviation of the muscle fiber size/mean of the muscle fiber size of the section)*[…]. For statistical analysis of different variance coefficient values Mann-Whitney U test was used.

[4] = 20 mg/kg every 2nd day i.p., 3 week old mice, 4 weeks treatment, diaphragm, vs vehicle mdx controls

IC50 [1] [nM] | IC50 [2] [nM] | SMILES | decrease in the variance coefficient of the muscle fiber size in the Dia [3, 4] [%] | adverse effects upon longterm treatment [3] | decrease in the variance coefficient of the muscle fiber size in the Dia ([3]; 2 mg/kg every 2nd day i.p., diaphragm, vs vehicle mdx controls) [%] | reduction of the percentage of centralized nuclei in the Dia ([3]; 20 mg/kg every 2nd day i.p., diaphragm, vs vehicle mdx controls) [%] | decrease in the variance coefficient of the muscle fiber size in the Quad ([3]; 20 mg/kg every 2nd day i.p., quadriceps, vs vehicle mdx controls) [%]
210 | 160 | CCNC(=O)C(=O)[C@H](Cc1ccc(Cl)cc1)NC(=O)[C@@H](NC(=O)[C@H](Cc1ccccc1)NC(=O)CCCCC1CCS[S+]1[O-])C(C)C (some centres unmarked) [Example 2] | 26 | No prominent adverse effects |  |  | 
40 | 40 | CCNC(=O)C(=O)C(Cc1ccc(OC)cc1)NC(=O)C(CC(C)C)NC(=O)C(Cc1cccc2ccccc12)NC(=O)CCCCC1CCSS1 (centres unmarked) [Example 637] | 34 | No prominent adverse effects | 33 | 34 | 32
